Data as given in publication PMC9518288, “The mechanism and pharmacodynamics of 2-((1H-indol-3-yl)thio/sulfinyl)-N-pheny acetamide derivative as a novel inhibitor against human respiratory syncytial virus” (Journal of Enzyme Inhibition and Medicinal Chemistry, 2022).

Tests used:
[1] = system: RSV minigenome (pBR322B-RSV-Gluc) in BHK-T7 cells; experiment: RSV minigenome assay (Gluc expression); type: cell-based, Human respiratory syncytial virus; details: BHK-T7, 24 h, vs DMSO
Experimental: BHK-T7 cells were seeded into 24 well plates at a density of 2 × 10^4 cells/well and incubated for 24 h. Then the RSV minigenome plasmid encoding […] (pBR322B-RSV-Gluc) was mixed with the helper plasmids (pCITE-N, pCITE-P, pCITE-L and pCITE-M2-1) in an Eppendorf tube containing 250 μL Opti-MEM. Meanwhile, the transfection reagent of Lipofectamine 2000 (Invitrogen, CA, USA) was diluted in another tube containing 250 μL Opti-MEM and incubated 5 min at room temperature. Then, the plasmids were mixed with the transfection reagent and incubated at room temperature for 30 min. After that, the BHK-T7 culture media were replaced with the DNA-lipo-optiMEM mixture and incubated for 4 ∼ 6 h (37 °C, 5% CO2). Then the DNA-lipo-optiMEM mixture was replaced with media containing the compounds (4–49 C at 1 mM and 1-HB-63 at 200 μM) and further incubated for 24 h (37 °C, 5% CO2). Finally, after the supernatant of the BHK-T7 cells was transferred into 96 well plate, the Gluc activity was determined by using LUMI star (BMG ABTECH, Ortenberg, Germany) following the manufacturer’s instructions after adding the chromogenic substrate of Gaussia Luciferase Flex Assay Kit (NEB, Ipswich, USA). The results were recorded by photography and/or evaluated with OPTIMA software (BMG LABTECH). The resultant signal strength was quantified as relative light unit (RLU).
(§1) Figure 2. Investigation on the underlying mechanism 4–49 C and 1-HB-63 inhibiting wtRSV replication. (A) Time-of-addition analyses of 4-49C and 1-HB-63 replication. The HEp-2 cells were infected with wtRSV at a multiplication of infection (MOI) of 5 for 2 h (37 °C, 5% CO2). The cells were washed with PBS and the media containing drug (4-49C, 1-HB-63, RSV-604, GS-5806 and Ribavirin at 1 mM, 200 μM, 10 μM, 1 mM and 100 μM, respectively.) were added at −1, 0, 2, 4, 6, 8, 10, 12 and 14 h separately and incubated till 24 h post infection. Then, the cells were harvested and lysed for RNA extraction and RT-qPCR assay. The results were a representative of three independent experiments, and shown as means ± standard and expressed as % negative control, although in many cases the bars for the standard deviation were obscured by the symbols given the small margin of values. (B) RSV adsorption analyses. After HEp-2 cells seeded into 24 well plates for 24 h, the cold media containing RSV (5 MOI) and compounds of 4–49C, 1-HB-63 and P13 at 1 mM, 200 μM and 100 μM, respectively, was added and incubated for 1 h at 4 °C. Then, the total RNA was isolated and RT-qPCR was performed. (C) RSV minigenome assay. After 24 h, we cotransfected RSV minigenome plasmid of pBR322B-RSV-Gluc with four auxiliary plasmids into BHK/T7 cells and detected the expression of Gluc in the supernatant. […]

RSV-Luc [2] = experiment: In vivo mouse imaging, oral route (intragastric); parameters: species or system BALB/c mice; details: intragastric 30 and 90 mg/kg, gavage twice a day
Experimental: Female BALB/c mice of 6-8 weeks were purchased from Charles River Laboratories, Beijing, China and randomly divided into different groups with six mice in each group. All animal experiments were performed in compliance with protocols approved by the Institutional Animal Care and Use Committees of Tsinghua University (No. 17-DZJ1). The compounds (DMSO and ribavirin of 90 mg/kg was used as negative and positive control, respectively) with three different dose groups of 10, 30 and 90 mg/kg were administered to mice by intraperitoneal (i.p.) injection or oral route (anaesthesia with 2% halothane) at zero day and 1 h prior to the mice infected with 50 μL RSV-Luc (1 × 10^6 PFU), […] For the in vivo mouse imaging, 50 μL PBS containing D-Luciferin Potassium Salt (75 mg/kg) was administered to BALB/c mice via nasal drip at days 1, 2, 3, 4 and 5 since RSV-Luc infection, and 5 min later, the whole-body images of BALB/c mice were acquired using an IVIS Lumina II in vivo imaging system (PE, Waltham, MA, USA). And the signal intensity was quantified as the total flux (photons/seconds) using Living Image software (PE).
In order to further make clear whether the anti-RSV activity of 4–49 C and 1-HB-63 is dependent on the administration route or not, these two compounds were given intragastrically (Figure 5(A)). […]

RSV-Luc [3] = experiment: Determination of RSV titre from lung tissues (RT-qPCR); type: in vivo, BALB/c mice; details: i.p. 10, 30, 90 mg/kg, day 5 post-infection
Experimental: Following the experiment of the in vivo mouse imaging mentioned above, the mice were sacrificed. The lung tissues were collected, weighed, quickly frozen under liquid nitrogen and ground with a tissue homogeniser. Then the total RNA was extracted by Trizol from 100 µL homogenates. The viral RNA sample (1 µL) was mixed with the SYBR Green supermix (10 µL), plasmid pMD-18T-N (1 µL, copy number from 1 × 10^7 copies/μL to 1 × 10^5 copies/μL), the upstream and downstream primers, respectively (10 µM, 1 µL) and water (1 µL). Reactions were performed in SLAN-96P Real-Time PCR System (Shanghai Hongshi Medical Technology) as follows: 42 °C for 60 min (for reverse transcription), 95 °C for 1.5 min, 95 °C for 15 s and 60 °C for 1 min, for 40 cycles. The reaction data were analysed by determining the threshold cycle (Ct).
Female BALB/c mice of 6–8 weeks were randomly divided into different groups with 6 mice in each group. All animal experiments were performed in compliance with protocols approved by the Institutional Animal Care and Use Committees of Tsinghua University (No. 17-DZJ1). At day 0, three different doses of 4–49 C and 1-HB-63 (10 mg/kg, 30 mg/kg, 90 mg/kg) were administered to mice by intraperitoneal (i.p.) injection, respectively, with DMSO and ribavirin of 90 mg/kg separately used as negative and positive control. […]

wtRSV in HEp-2 cells = experiment: Time-of-addition assay (RT-qPCR); type: cell-based, Human respiratory syncytial virus; details: wtRSV MOI 5, HEp-2, added at −1 to 14 h, RT-qPCR at 24 h post infection
Experimental: The time-of-addition assay was performed as follows according to our previous work and literature[25]^,[27]. HEp-2 cells were plated in 96 well plates at 1.5 × 10^4 cells per well in 100 µL culture medium and incubated for 24 h (37 °C, 5% CO2). Then, HEp-2 cells were infected with wtRSV at a multiplication of infection (MOI) of 5 for 2 h (37 °C, 5% CO2). The cells were washed with PBS and the media containing drugs and compounds of 4–49 C, 1-HB-63, RSV-604, GS-5806 and Ribavirin at 1 mM, 200 μM, 10 μM, 1 mM and 100 μM, respectively, were added at −1, 0, 2, 4, 6, 8, 10, 12 and 14 h post infection. After the treated cells were further cultured and collected at 24 h post infection, the total RNA was isolated from the HEp-2 cells using TRIzol reagent (Thermo Fisher Scientific, Waltham, MA, USA) and reverse transcribed with GoScript Reverse Transcriptase kit (Promega, Madison, WI, USA). Then, RT-qPCR was performed as described previously.
as §1, with “After HEp-2 cells seeded into 24 well plates for 24 h, the cold media containing RSV (5 MOI) and compounds of 4–49C, 1-HB-63 and P13 at 1 mM, 200 μM and 100 μM, respectively, was added and incubated for 1 h at 4 °C. Then, the total RNA was isolated and RT-qPCR was performed. (C) RSV minigenome assay.” left out

[4] = system: RSV adsorption to HEp-2 cells; experiment: RSV adsorption analyses (RT-qPCR); type: cell-based, Human respiratory syncytial virus; details: RSV 5 MOI, 1 h at 4 °C
Experimental: as §1

RSV-Luc [5] = experiment: In vivo mouse imaging, intraperitoneal injection; parameters: species or system BALB/c mice; details: i.p. 10, 30, 90 mg/kg once a day, days 1-5; except 4–49 C 10 and 90 mg/kg groups on the second day
Experimental: Female BALB/c mice of 6-8 weeks were purchased from Charles River Laboratories, Beijing, China and randomly divided into different groups with six mice in each group. All animal experiments were performed in compliance with protocols approved by the Institutional Animal Care and Use Committees of Tsinghua University (No. 17-DZJ1). The compounds (DMSO and ribavirin of 90 mg/kg was used as negative and positive control, respectively) with three different dose groups of 10, 30 and 90 mg/kg were administered to mice by intraperitoneal (i.p.) injection or oral route (anaesthesia with 2% halothane) at zero day and 1 h prior to the mice infected with 50 μL RSV-Luc (1 × 10^6 PFU), and then once a day for 5 consecutive days post RSV-Luc infection. For the in vivo mouse imaging, 50 μL PBS containing D-Luciferin Potassium Salt (75 mg/kg) was administered to BALB/c mice via nasal drip at days 1, 2, 3, 4 and 5 since RSV-Luc infection, and 5 min later, the whole-body images of BALB/c mice were acquired using an IVIS Lumina II in vivo imaging system (PE, Waltham, MA, USA). And the signal intensity was quantified as the total flux (photons/seconds) using Living Image software (PE).
Female BALB/c mice of 6–8 weeks were randomly divided into different groups with 6 mice in each group. […]

[6] = Pharmacokinetic study in rat; type: in vivo, Sprague − Dawley (SD) rats; details: SD rat
Experimental: Six male Sprague − Dawley (SD) rats, randomly divided into two groups of 3 each, were treated with 4–49 C predissolved in 5% DMSO, 5% Solutol and 90% Saline by intravenous injection (iv, 5 mg/kg) and in 5% DMSO and 95% (0.5%MC) by intragastric administration (ig, 10 mg/kg), respectively. Blood samples (100 μL) were collected into K2-EDTA tubes by retro‐orbital bleeding under anaesthesia using isoflurane at 0.033, 0.083, 0.25, 0.5, 1, 2, 4, 7 and 24 h after dosing. And then plasma samples were obtained by centrifuging at 5000 rpm for 10 min at 4 °C and stored at −80 °C until analysis using HPLC–MS/MS.
To investigate the pharmacokinetic parameters in vivo, 4–49 C was selected for the pharmacokinetic experiments in SD rat model. The SD rats were divided into two groups (n = 3) and treated by iv at 5 mg/kg dose and by ig at 10 mg/kg dose, respectively. Plasma samples were collected up to 24 h postdosing and the concentration of 4–49 C was measured by using HPLC-MS/MS.

[7] = positive controls, concentration not given
[8] = male, Sprague-Dawley, iv, 5 mg/kg, plasma, n = 3, Mean ± SD

## NC(=O)c1ncn([C@@H]2O[C@H](CO)[C@@H](O)[C@H]2O)n1 [ribavirin, Ribavirin, reference compound]
[1]; [7]
  inhibition of expression of Gluc gene: sharply contrast

## O=C(C[S+]([O-])c1c[nH]c2ccccc12)Nc1ccccc1Br (stereo not shown) [1-HB-63]
RSV-Luc [2]
  fluorescence signals (RSV-Luc replication) compared with DMSO negative control group: did not exhibit significant differences
[1]; 1-HB-63 at 200 μM
  inhibition of expression of Gluc gene: sharply contrast
RSV-Luc [3]
  virus titres in lung tissues compared with DMSO: no significant differences
wtRSV in HEp-2 cells; compound at 200 μM
  time points of addition at which virus replication is inhibited: significantly inhibited virus replication when added at the time points of −1, 0, 2 and 4 h
[4]; 1-HB-63 at 200 μM
  inhibition of RSV replication by preventing virus adsorption: neither of 4-49 C and 1-HB-63 inhibited RSV replication by preventing virus adsorption
RSV-Luc [5]
  fluorescence signals (RSV-Luc replication in lungs) compared with DMSO-treated group: did not display significant differences

## CCOc1ccccc1NC(=O)CSc1c[nH]c2ccc(OC)cc12 [4–49 C]
RSV-Luc [2]
  fluorescence signals (RSV-Luc replication) compared with DMSO negative control group: did not exhibit significant differences
[1]; 4–49 C at 1 mM
  inhibition of expression of Gluc gene: could not be inhibited
RSV-Luc [3]
  virus titres in lung tissues compared with DMSO: no significant differences
wtRSV in HEp-2 cells; compound at 1 mM
  time points of addition at which virus replication is inhibited: significantly inhibited virus replication when added at the time points of −1, 0 and 2 h
[6]; ig, 10 mg/kg, up to 24 h, HPLC-MS/MS (data not shown)
  concentration in plasma samples after ig administration: no 4–49 C detected in plasma samples
[6]; iv, 5 mg/kg, plasma, n = 3, Mean ± SD
  MRTIV: 7.86 ± 0 min
[6]; [8]
  AUC(0-inf): 0.07 ± 0.017 µg·h/mL
  AUC(0-t): 0.0693 ± 0.017 µg·h/mL
  Cmax: 0.454 ± 0.111 µg/mL
  half-life: 10 ± 18 min
  k el: 0.00119 s⁻¹
[4]; 4-49C at 1 mM
  inhibition of RSV replication by preventing virus adsorption: neither of 4-49 C and 1-HB-63 inhibited RSV replication by preventing virus adsorption
RSV-Luc [5]
  fluorescence signals (RSV-Luc replication in lungs) compared with DMSO-treated group: did not display significant differences

## Cc1cn2nc([C@@H]3CCCCN3C(=O)c3cc(Cl)ccc3NS(C)(=O)=O)cc2nc1N1CC[C@H](N)C1 [GS-5806, reference compound]
[1]; [7]
  inhibition of expression of Gluc gene: could not be inhibited
wtRSV in HEp-2 cells; compound at 1 mM
  time points of addition at which virus replication is inhibited: inhibition activity only when added up to 0 and 2 h
